Reference: patent US20070135383A1, “Phospholipase inhibitors, including multi-valent phospholipase inhibitors, and use thereof, including as lumen-localized phospholipase inhibitors” (priority 2005, published 2007)
Like-named read-outs stand apart in the source and are kept apart here.

Assays:
PL A2 = conditions: range given in words, art-known PL A2 inhibitors; cited from earlier work
[1] = target: T1, porcine group 1B PLA2 (pps PLA2) (Sus scrofa, UniProt P00592); test: Fluorimetric PPyrPM assay for group 1B PLA2 inhibition (Example 12); type: biochemical
T1 construct: purchased
T1 sequence (P00592 23-146): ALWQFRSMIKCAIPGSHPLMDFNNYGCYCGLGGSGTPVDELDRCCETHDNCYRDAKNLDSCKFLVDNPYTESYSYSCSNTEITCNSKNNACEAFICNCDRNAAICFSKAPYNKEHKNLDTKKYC
Procedure, shortened: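 Porcine group 1B PLA2 hydrolysis of 4.2 uM PPyrPM vesicle solution (pre-mixing concentration) in 50 mM Tris-HCl pH 8.0, 50 mM KCl, 1 mM CaCl2 with BSA; inhibitors in 8-point threefold series from 15 uM. After 3 min at 37 °C, fluorescence read at ex 342/em 395 nm; duplicate IC50 by four-parameter fit.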

[2] = target: T2, human group 1B PLA2 (hps PLA2) (Homo sapiens, UniProt P04054); test: as above; type: biochemical
T2 construct: made in house; host or cells: E. coli
T2 sequence (P04054 23-148): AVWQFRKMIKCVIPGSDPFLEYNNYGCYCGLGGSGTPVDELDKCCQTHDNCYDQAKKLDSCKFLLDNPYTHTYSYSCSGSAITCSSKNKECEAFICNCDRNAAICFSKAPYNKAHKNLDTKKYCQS

[3] = target: T3, mouse group 1B PLA2 (mps PLA2) (Mus musculus, UniProt Q9Z0Y2); test: as above; type: biochemical
T3 construct: made in house; host or cells: E. coli
T3 sequence (Q9Z0Y2 23-146): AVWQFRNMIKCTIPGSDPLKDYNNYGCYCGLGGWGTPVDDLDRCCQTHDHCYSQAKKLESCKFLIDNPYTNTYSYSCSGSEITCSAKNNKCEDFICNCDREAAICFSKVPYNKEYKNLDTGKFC

[4] = Mouse pharmacokinetic study, IV vs oral (Example 18); type: in vivo, male CD-1 mice; conditions: male, CD-1, mouse, PO 30 mg/kg vs IV 3 mg/kg, serum by LC/MS/MS
Protocol: The plasma exposure of male CD-1 mice to indole and indole-related test articles (TAs) following intravenous (IV, 3 mg/kg) and oral (PO, 30 mg/kg) routes of administration was measured. This model was used to investigate the bioavailability of indole and indole-related TAs in mouse. Mice were selected for the study since they are an accepted species frequently used in pre-clinical evaluation of drugs intended for human use.
Male CD-1 mice (7-8 weeks old) were obtained from Charles River Laboratories (Wilmington, Mass.). Two groups (N=18 and 27) of male CD-1 mice were used for the study. Upon arrival, the animals were placed on Rodent Diet 5001 (Purina Mills, Inc., St. Louis, Mo.).
On study day (−1), indole and indole-related TAs were formulated for oral or IV dosing by mixing the formulation components with test article in the proportions described in Table 10.1. The components were mixed by vortexing and sonicating in a warming bath for 60 minutes. Animals were fasted overnight prior to start of the study. On study day (1), formulations were sonicated for an hour to make sure that no visible particles were present prior to dosing, or if present were evenly distributed in suspension. Formulated test article were stirred continuously during dosing.
All animals were weighed on study day (1) and the body weights were recorded and used for dose calculation. The animals were dosed by either PO or IV route as outlined in Table 10.2. Blood samples (0.5 mL) were collected at specified time intervals into labeled, yellow-capped Microtainer tubes. The tubes were centrifuged (8,000×g, 10 min). Serum was then pipetted off into labeled Eppendorf® tubes and frozen at −80° C. Clinical observations were recorded as needed.
Analysis of serum samples was performed by LC/MS/MS (Waters Quattro Premier, Milford, Mass.). Areas under curves (AUC) were calculated using Graphpad Prism Version 4. Bioavailability was calculated using the following equation: (Bioavailability)=(AUC0-t,oral/AUC0-t,iv)×(Doseiv/Doseoral)×100
where AUC0-t=total area under curve at the last measurable time point

[5] = test system: LDL receptor knockout mice; test: LDL receptor knockout mouse model (Example 20); type: in vivo; conditions: low fat control diet D12328, 25 or 90 mg/kg/d
From the text: Mice lack an enzyme found in humans, cholesterol ester transfer protein (CETP), which is responsible for the transfer of cholesterol from high density lipoproteins (HDL) to the ApoB-containing lipoproteins such as very low density lipoproteins (VLDL) and low density lipoproteins (LDL). Consequently, LDL cholesterol levels in wild-type mice are very low compared to those seen in humans. The low density lipoprotein receptor (LDLR) is involved with clearing LDL and lipoprotein remnants containing apoE. If the LDLR is inactivated, LDL cholesterol levels rise to levels seen in humans. On a normal rodent diet, the LDL cholesterol levels in LDLR deficient mice are elevated compared to wild-type mice. […]
In these studies and the accompanying figures, Diet D12328 from Research Diets is referred to as the “Low Fat” or Control diet, while Diet D12079B from Research Diets is referred to as the “Western” diet. […] The Test Article content was calculated such that ad libitum consumption by the animals would deliver doses (in mg of Test Article per Kg animal weight per day) approximating those listed in Table 12.
Animals were maintained on the diets for eight weeks. Body weights were recorded weekly. […] The serum was analyzed for total cholesterol, LDL cholesterol, HDL cholesterol, triglycerides (TG), free fatty acid (FFA) and lysophospholipid (LPC) content. […]

[6] = test system: C57BL/6J mouse model of obesity; test: Mouse diet-induced obesity model (Example 19); type: in vivo; conditions: low fat control diet D12328, 25 or 90 mg/kg/d
From the text: The high-fat diet-fed C57BL/6J mouse model of human diabetes, originally introduced by Surwit and colleagues (Surwit, R S, et al. (1988) “Diet-induced type II diabetes in C57BL/6J mice”, Diabetes 37: 1163-1167) is a widely accepted, clinically relevant, polygenic model that induces obesity, dyslipidemia, glucose- and insulin-resistance as early as 3 weeks after commencing the high fat diet (Winzell, M S and Ahren, B (2004) “The high-fat diet-fed mouse: a model for studying mechanisms and treatment of impaired glucose tolerance and type 2 diabetes”, Diabetes 53 Suppl 3: S215-219). This model was used to investigate the effects of indole and indole-related Test Articles. Avandia (rosiglitazone) was used as a control Test Article. […]
In these studies and the accompanying figures, Diet D12328 from Research Diets is referred to as the “Low Fat” or Control diet/chow, while Diet D12331 from Research Diets is referred to as the “High Fat” diet. […] The Test Article content was calculated such that ad libitum consumption by the animals would deliver doses (in mg of Test Article per kg animal weight per day) approximating those listed in Table 11.
Animals were maintained on the diets for up to eleven weeks. Body weights were recorded weekly. […] The serum was analyzed for glucose, total cholesterol, triglycerides (TG) and lysophospholipid (LPC) content. […]

mice = test: Toxicology, daily oral gavage for 5 consecutive days (Example 23); type: in vivo
From the text: The purpose of this study was to evaluate the toxicity of indole and indole-related Test Articles when administered daily via oral gavage to mice for 5 consecutive days.
Assessment of toxicity was based on mortality; clinical signs, body weight, food consumption, clinical pathology, and macroscopic pathology data.

[7] = porcine pancreas secreted PLA2, read-out: ILYPSA IC50 pps PLA2
[8] = human pancreas secreted PLA2, read-out: ILYPSA IC50 hps PLA2
[9] = mouse pancreas secreted PLA2, read-out: ILYPSA IC50 mps PLA2

CCN(CC)CCN(Cc1ccc(-c2ccc(C(F)(F)F)cc2)cc1)C(=O)Cn1cc(Cc2ccn(C)n2)c(=O)nc1SCc1ccc(F)cc1 [GB-480848]
IC50 (PL A2): nM or subnM range

CCc1c(CC(N)=O)c2cc(OCCCP(=O)(O)O)ccc2n1Cc1ccccc1 [LY-311727]
IC50 (PL A2): sub μM range

C=CCN(CC(=O)OCC)C(=O)COc1ccc(C(=O)OCc2ccccc2)cc1
IC50 (PL A2): μM range

Cc1c(C(=O)C(N)=O)c2c(OCC(=O)O)cccc2n1CCCCCCCCCCCCOc1ccccc1-c1ccccc1OCCCCCCCCCCCCn1c(C)c(C(=O)C(N)=O)c2c(OCC(=O)O)cccc21 [ILY-V-37, [3-Aminooxalyl-1-(12-{2′-[12-(3-aminooxalyl-4-carboxymethoxy-2-methyl-indol-1-yl)-dodecyloxy]-biphenyl-2-yloxy}-dodecyl)-2-methyl-1H-indol-4-yloxy]-acetic acid]
IC50 [1, 7]: 200 nM
IC50 [2, 8]: 270 nM
IC50 [3, 9]: 230 nM
bioavailability ([4]; in vivo): 0.15%

Cc1c(C(=O)C(N)=O)c2c(OCC(=O)O)cccc2n1CCCCCCCCCCCCOc1ccc(C(C)(C)c2ccc(OCCCCCCCCCCCCn3c(C)c(C(=O)C(N)=O)c4c(OCC(=O)O)cccc43)cc2)cc1 [ILY-V-30, 2,2′-(1,1′-(12,12′-(4,4′-(propane-2,2-diyl)bis(4,1-phenylene))bis(oxy)bis(dodecane-12,1-diyl))bis(3-(2-amino-2-oxoacetyl)-2-methyl-1H-indole-4,1-diyl))bis(oxy)diacetic acid]
IC50 [1, 7]: < 20 nM
IC50 [2, 8]: 430 nM
IC50 [3, 9]: 190 nM
bioavailability ([4]; in vivo): 0%

Cc1c(C(=O)C(N)=O)c2c(OCC(=O)O)nccc2n1Cc1ccccc1 [ILY-II-1, (3-Aminooxalyl-1-benzyl-2-methyl-1H-pyrrolo[3,2-c]pyridin-4-yloxy)-acetic acid]
IC50 [1]: 70 nM
IC50 [2]: 1150 nM
IC50 [3]: 230 nM
bioavailability [4]: 11%

Cc1c(C(=O)C(N)=O)c2c(OCC(=O)O)cccc2n1CCCCCCCCCCCCOc1ccc(C(C)(C)c2ccc(OCCCCCCCCCCCCn3c(C)c(C(=O)C(N)=O)c4c(OCC(=O)O)cccc43)cc2)cc1 [ILY4011]
effect of test article in animals fed low fat control diet [5]: No or little effect
effect of test article in animals fed low fat control diet [6]: No or little effect
clinical pathology data, treated groups vs vehicle control group (mice): no differences
